Read-outs that look alike come from different tables or passages of the source.

The subject of test [1] is Key Broadleaf Weed and Crop Species. Kind of test: Post-Emergent Test II: postemergent herbicidal activity, visual rating after 14 d (Table 7). The note with it: post-emergence, 336 h; for pest or weed control at 140 g/ha: 140 g ai/ha; for pest or weed control at 35 g/ha: 35 g ai/ha; for pest or weed control at 70 g/ha: 70 g ai/ha. Format: in vivo. The text has this:
Herbicidal evaluations were made visually on a scale of 0 to 100 where 0 represents no activity and 100 represents complete plant death.
Seeds or nutlets of the desired test plant species were planted in Sun Gro Metro-Mix® 360 planting mixture, which typically has a pH of 6.0 to 6.8 and an organic matter content of about 30 percent, in plastic pots with a surface area of 64 square centimeters (cm^2). When required to ensure good germination and healthy plants, a fungicide treatment and/or other chemical or physical treatment was applied. The plants were grown for 7-21 d in a greenhouse with an approximate 15 h photoperiod which was maintained at about 23-29° C. during the day and 22-28° C. during the night. Nutrients and water were added on a regular basis and supplemental lighting was provided with overhead metal halide 1000-Watt lamps as necessary. The plants were employed for testing when they reached the first or second true leaf stage.
A weighed amount, determined by the highest rate to be tested, of each test compound was placed in a 25 mL glass vial and was dissolved in 4 mL of a 97:3 v/v mixture of acetone and DMSO to obtain concentrated stock solutions. […] The concentrated stock solutions obtained were diluted with 20 mL of an aqueous mixture containing acetone, water, isopropyl alcohol, DMSO, Atplus 411F crop oil concentrate, and Triton® X-155 surfactant in a 48.5:39:10:1.5:1.0:0.02 v/v ratio to obtain spray solutions containing the highest application rates. Additional application rates were obtained by serial dilution of 12 mL of the high rate solution into a solution containing 2 mL of a 97:3 v/v mixture of acetone and DMSO and 10 mL of an aqueous mixture containing acetone, water, isopropyl alcohol, DMSO, Atplus 411F crop oil concentrate, and Triton X-155 surfactant in a 48.5:39:10:1.5:1.0:0.02 v/v ratio to obtain ½×, ¼×, ⅛× and 1/16× rates of the high rate. Compound requirements are based upon a 12 mL application volume at a rate of 187 liters per hectare (L/ha). Formulated compounds were applied to the plant material with an overhead Mandel track sprayer equipped with 8002E nozzles calibrated to deliver 187 L/ha over an application area of 0.503 square meters at a spray height of 18 inches (43 cm) above the average plant canopy height. Control plants were sprayed in the same manner with the solvent blank.
The treated plants and control plants were placed in a greenhouse as described above and watered by subirrigation to prevent wash-off of the test compounds. After 14 d, the condition of the test plants as compared with that of the untreated plants was determined visually and scored on a scale of 0 to 100 percent where 0 corresponds to no injury and 100 corresponds to complete kill and are presented as indicated in Table 4.

Test [2] deals with Key Grass and Sedge Weeds as well as Grass Crops. The experiment in a line: Post-Emergent Test II: postemergent herbicidal activity, visual rating after 14 d (Table 8). The format is in vivo. As to conditions: post-emergence, 336 h; for pest or weed control at 140 g/ha: 140 g ai/ha; for pest or weed control at 35 g/ha: 35 g ai/ha; for pest or weed control at 70 g/ha: 70 g ai/ha. Put shortly: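 Track-sprayed young seedlings (first/second true leaf) at 187 L/ha across a 2-fold rate series from the high rate down to 1/16×. Kept in greenhouse at 23-29° C day, subirrigated. Injury rated by eye after 14 d, 0 = no injury, 100 = complete kill.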

The mark [3] stands for this setting: lambsquarters (Chenopodium album), read-out: Visual Growth Reduction (%) 14 Days After Application CHEAL.
[4] abbreviates: oilseed rape, canola (Brassica napus), read-out: Visual Growth Reduction (%) 14 Days After Application BRSNN.
The mark [5] stands for this setting: redroot pigweed (Amaranthus retroflexus), read-out: Visual Growth Reduction (%) 14 Days After Application AMARE.
Setting [6] is: sunflower (Helianthus annuus), read-out: Visual Growth Reduction (%) 14 Days After Application HELAN.
The mark [7] stands for this setting: velvetleaf (Abutilon theophrasti), read-out: Visual Growth Reduction (%) 14 Days After Application ABUTH.
[8] abbreviates: wild poinsettia (Euphorbia heterophylla), read-out: Visual Growth Reduction (%) 14 Days After Application EPHHL.
[9] abbreviates: giant foxtail (Setaria faberi), read-out: Visual Growth Reduction (%) 14 Days After Application SETFA.
The mark [10] stands for this setting: maize, corn (Zea mays), read-out: Visual Growth Reduction (%) 14 Days After Application ZEAMX.
Setting [11] is: rice (Oryza sativa), read-out: Visual Growth Reduction (%) 14 Days After Application ORYSA.
Where [12] appears, read: wheat, spring (Triticum aestivum), read-out: Visual Growth Reduction (%) 14 Days After Application TRZAS.
The mark [13] stands for this setting: yellow nutsedge (Cyperus esculentus), read-out: Visual Growth Reduction (%) 14 Days After Application CYPES.

For the compound `CN1CCc2cc(-c3nc(C(=O)O)c(Cl)c(N)c3F)ccc21` [Compound 108], the pest or weed control at 140 g/ha lay in the range of 0 to 29% in test [1] (ABUTH: velvetleaf (Abutilon theophrasti), read-out: Visual Growth Reduction (%) 14 Days After Application ABUTH); 0 to 29% in test [1] (AMARE: redroot pigweed (Amaranthus retroflexus), read-out: Visual Growth Reduction (%) 14 Days After Application AMARE); 0 to 29% in test [1] (BRSNN: oilseed rape, canola (Brassica napus), read-out: Visual Growth Reduction (%) 14 Days After Application BRSNN); 60 to 74% in test [1] (CHEAL: lambsquarters (Chenopodium album), read-out: Visual Growth Reduction (%) 14 Days After Application CHEAL); 0 to 29% in test [1] (EPHHL: wild poinsettia (Euphorbia heterophylla), read-out: Visual Growth Reduction (%) 14 Days After Application EPHHL); 60 to 74% in test [1] (HELAN: sunflower (Helianthus annuus), read-out: Visual Growth Reduction (%) 14 Days After Application HELAN). For the same compound, the pest or weed control at 140 g/ha in test [2] (barnyardgrass (Echinochloa crus-galli), read-out: Visual Growth Reduction (%) 14 Days After Application, ECHCG) is 75 to 84%; in test [2] (giant foxtail (Setaria faberi), read-out: Visual Growth Reduction (%) 14 Days After Application, SETFA), 0 to 29%; in test [2] (maize, corn (Zea mays), read-out: Visual Growth Reduction (%) 14 Days After Application, ZEAMX), 0 to 29%; in test [2] (rice (Oryza sativa), read-out: Visual Growth Reduction (%) 14 Days After Application, ORYSA), 0 to 29%; in test [2] (wheat, spring (Triticum aestivum), read-out: Visual Growth Reduction (%) 14 Days After Application, TRZAS), 0 to 29%; in test [2] (yellow nutsedge (Cyperus esculentus), read-out: Visual Growth Reduction (%) 14 Days After Application, CYPES), 0 to 29%.

Regarding `Nc1cc(-c2ccc3c(c2Cl)OC(F)(F)O3)nc(C(=O)O)c1Cl` [Compound 34], the pest or weed control at 35 g/ha in test [1] (setting [3]) fell in the range of 75 to 84%; in test [1] (setting [4]), 75 to 84%; in test [1] (setting [5]), 85 to 94%; in test [1] (setting [6]) it was 75 to 84%; in test [1] (setting [7]), 45 to 59%; in test [1] (setting [8]) it was 45 to 59%. The pest or weed control at 35 g/ha in test [2] (setting [9]) lay in the range of 75 to 84%; in test [2] (setting [10]) it was 60 to 74%; in test [2] (setting [11]), 0 to 29%; in test [2] (setting [12]) it was 45 to 59%; in test [2] (setting [13]), 0 to 29%. The pest or weed control at 70 g/ha was in the range of 75 to 84% in test [1] (setting [3]); 75 to 84% in test [1] (setting [4]); 95 to 100% in test [1] (setting [5]); 85 to 94% in test [1] (setting [6]); 60 to 74% in test [1] (setting [7]); 60 to 74% in test [1] (setting [8]). The pest or weed control at 70 g/ha in test [2] (setting [9]) lay within 75 to 84%; in test [2] (setting [10]), 60 to 74%; in test [2] (setting [11]), 0 to 29%; in test [2] (setting [12]) it was 60 to 74%; in test [2] (setting [13]), 0 to 29%. Also, the pest or weed control at 140 g/ha in test [1] (setting [3]) was in the range of 75 to 84%; in test [1] (setting [4]) it was 85 to 94%; in test [1] (setting [5]), 95 to 100%; in test [1] (setting [6]) it was 85 to 94%; in test [1] (setting [7]) it was 75 to 84%; in test [1] (setting [8]) it was 60 to 74%. Also, the pest or weed control at 140 g/ha lay within 75 to 84% in test [2] (setting [9]); 60 to 74% in test [2] (setting [10]); 0 to 29% in test [2] (setting [11]); 60 to 74% in test [2] (setting [12]); 0 to 29% in test [2] (setting [13]).

With `COC(=O)c1nc(-c2cc(OC)c3c(c2)OCO3)c(F)c(N)c1Cl` [Compound 14], the pest or weed control at 140 g/ha in test [1] (setting [3]) was 75 to 84%; in test [1] (setting [4]), 0 to 29%; in test [1] (setting [5]), 0 to 29%; in test [1] (setting [6]), 85 to 94%; in test [1] (setting [7]), 0 to 29%; in test [1] (setting [8]), 0 to 29%. Also, the pest or weed control at 140 g/ha in test [2] (barnyardgrass (Echinochloa crus-galli), read-out: Visual Growth Reduction (%) 14 Days After Application ECHCG) is 0 to 29%; in test [2] (setting [9]) it was 0 to 29%; in test [2] (setting [10]), 0 to 29%; in test [2] (setting [11]), 0 to 29%; in test [2] (setting [12]) it was 0 to 29%; in test [2] (setting [13]), 0 to 29%.

Values taken from US9149038B2, “4-amino-6-(heterocyclic)picolinates and 6-amino-2-(heterocyclic)pyrimidine-4-carboxylates and their use as herbicides” (Dow AgroSciences LLC, priority 2013, dated 2015).
